Calls of active or inactive are those of the source. The rule behind the calls is not given here.
Tests used:
[1] = Cytotoxicity against BALB/c mouse peritoneal macrophages after 20 hrs by MTT assay; assay type: cell-based; settings: Peritoneal macrophage cell
Rattus norvegicus [2] = test: Antihypernociceptive activity in Wistar rat assessed as inhibition of capsaicin-induced thermal hypernociception by measuring paw withdrawal latency at 100 umol/kg, po administered 1 hr before capsaicin challenge measured after 10 mins; assay type: functional, organism-based
[3] = Antiinflammatory activity in BALB/c mouse peritoneal macrophages assessed as inhibition of LPS-induced TNFalpha production treated 1 hr before LPS challenge measured after 24 hrs by ELISA; assay type: functional, cell-based; settings: Peritoneal macrophage cell
Mus musculus = test: Antihypernociceptive activity in po dosed BALB/c mouse methylated bovine serum albumin-induced arthritis model assessed as paw withdrawal latency administered 30 mins before mBSA challenge followed by second dose after 7 hrs by electronic Von Frey method; assay type: functional, organism-based
[4] = Antiinflammatory activity in BALB/c mouse peritoneal macrophages assessed as inhibition of LPS-induced TNFalpha production at 100 uM treated 1 hr before LPS challenge measured after 24 hrs by ELISA; assay type: functional; settings: Peritoneal macrophage cell
MAP kinase p38 = MAP kinase p38 (Mus musculus, UniProt P47811+O08911+Q9WUI1+Q9Z1B7); test: Inhibition of LPS-induced p38 MAPK activation in BALB/c mouse peritoneal macrophages
Rattus norvegicus [5] = test: Antiinflammatory activity in Wistar rat assessed as inhibition of carrageenan-induced paw oedema at 100 umol/kg, po after 1 hr; assay type: functional, organism-based
Rattus norvegicus [6] = test: Antiinflammatory activity in Wistar rat assessed as inhibition of carrageenan-induced paw oedema at 100 umol/kg, po after 3 hrs; assay type: functional, organism-based

Compound	IC50 [1] [µM]	inhibition (Rattus norvegicus [2])	IC50 [3] [µM]	further results
CCOC(=O)c1cc2cc3c(cc2nc1NC(=O)Nc1ccccc1)OCO3	42.7	–	–	–
CCOC(=O)c1cc2cc3c(cc2nc1NC(=O)Nc1ccc(Br)cc1)OCO3	–	Active	–	–
C[S+]([O-])c1ccc(-c2nc(-c3ccc(F)cc3)c(-c3ccncc3)[nH]2)cc1 (stereo not drawn) [SB-203580]	–	Active	0.22	–
CCOC(=O)c1cc2cc3c(cc2nc1NC(=O)NC1CCCCC1)OCO3	46.7	Active	55	Activity (Mus musculus): Dose-dependent effect; inhibition at 100 µM [4]: 50%; IC50 (MAP kinase p38): 14 µM; inhibition (Rattus norvegicus [5]): Active; inhibition (Rattus norvegicus [6]): Active
CCOC(=O)c1cc2cc3c(cc2nc1NC(=O)Nc1ccc([N+](=O)[O-])cc1)OCO3	–	Active	–	–

Reference: ChEMBL document CHEMBL2040776, “Docking, synthesis and pharmacological activity of novel urea-derivatives designed as p38 MAPK inhibitors” (Eur J Med Chem, 2012)
